Assay results reported in patent EP4121415B1, “INHIBITORS OF CYTOKININ OXIDASE DERIVED FROM 1-[2-(HYDROXYALKYL)PHENYL]-3-YLUREA, USE THEREOF AND PREPARATIONS CONTAINING THESE DERIVATIVES” (Univerzita Palackého v Olomouci, priority 2020, dated 2021).
“And” between values parts separate entries of the source, which are not always exact repeats. Identical values can stand only once.

Experiments:
[1] = molecular target: T1, maize enzyme cytokinin oxidase/dehydrogenase 1 (ZmCKX1) (Zea mays, UniProt Q9T0N8); test: ZmCKX1 inhibition, PMS/MTT assay; type: biochemical
T1 construct: made in house; host or cells: Yarrowia lipolytica
T1 sequence (Q9T0N8 19-534): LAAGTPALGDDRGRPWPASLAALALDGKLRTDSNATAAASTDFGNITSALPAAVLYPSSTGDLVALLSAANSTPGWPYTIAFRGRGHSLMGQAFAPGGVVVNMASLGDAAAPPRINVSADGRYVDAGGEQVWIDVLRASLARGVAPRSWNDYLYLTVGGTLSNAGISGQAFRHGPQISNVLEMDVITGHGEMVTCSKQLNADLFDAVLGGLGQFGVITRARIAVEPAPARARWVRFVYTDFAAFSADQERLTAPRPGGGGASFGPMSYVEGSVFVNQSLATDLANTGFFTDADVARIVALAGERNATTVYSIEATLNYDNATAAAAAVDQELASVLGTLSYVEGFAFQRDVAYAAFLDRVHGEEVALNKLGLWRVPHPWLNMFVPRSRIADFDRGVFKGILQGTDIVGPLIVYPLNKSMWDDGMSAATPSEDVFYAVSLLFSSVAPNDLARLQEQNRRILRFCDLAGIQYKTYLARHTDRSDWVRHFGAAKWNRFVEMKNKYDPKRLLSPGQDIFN
Protocol: The IC50 (concentration of a substance that causes 50% inhibition of the enzyme activity) was measured by PMS/MTT assay [phenazine methosulphate/3-(4,5-dimethylthiazol-2-yl)-2,5-diphenyltetrazolium bromide]. The assay was performed in 96-well microtiter plates. Each well contained a reaction mixture with a final concentration of: 0.1 M KH2PO4, pH 7.4, 1 mM MTT, 0.2 mM PMS, tested substance in a concentration range of 0.1 nM - 1 µM and 10 µM N^6-isopentenyladenine (iP) as a substrate. To this reaction mixture 100 µL of medium containing the active enzyme ZmCKX1 was added. The enzyme was produced by the yeast Yarrowia lipolytica and isolated according to the protocol (Kopečný D. et al., 2005, […] 87:1011-1022). The plates were incubated for 30 min at 37 °C and the enzymatic reaction was stopped by the addition of 25 µL of 35% acetic acid. Then, the absorbance at 578 nm was measured on a spectrophotometer, and the absorbance of the sample without the substrate was substracted as a reference value. The IC50 value was determined from the concentration-dependent curves in GraphPad Prism software. The values shown in Table 1 are the average of at least two measurements each performed in three repetitions. […] This also applies to 3,5-DCl-Ph-U derivatives.

[2] = tested on: segments of wheat leaves (Triticum aestivum cv. Hereward); test: wheat leaf senescence assay performed in the dark (chlorophyll retention in detached leaf segments); type: in vivo; details: Triticum aestivum, foliar, 96 h, read-out: (% of chlorophyll above control)
Protocol: Seeds of winter wheat (Triticum aestivum cv. Hereward) was washed under running water for 4 hours and then sown in vermiculite saturated with Knop's nutrient solution. The trays with seeds were placed in an air-conditioned growth chamber with a 16/8 hour light regime (light intensity 50 µmol.m^-2.s^-1) and a temperature of 15 °C. After 7 days, the seedlings had developed the first […] and the second leaf began to grow. Top sections approximately 4 cm long were excised from the first leaves of 4 plants and their combined weight was adjusted to exactly 100 mg. The basal ends of these 4 leaf segments were placed in the wells of microtiter polystyrene plates containing solution (150 µL) of the tested derivative. The plates were placed in a plastic box with filter paper, which was saturated with water (to maintain the maximum humidity). After 96 hours of incubation in the dark at 25 °C, the leaf segments were removed and the chlorophyll was extracted to 5 mL of 80% ethanol by heating the leaf segments in ethanol at 80 °C for 40 min. The sample volume was then adjusted to 5 mL by adding 80% ethanol. The absorbance of the extracts was measured at 665 nm. Chlorophyll extracts from leaf segments incubated in deionized water (so-called yellow control) were also measured as controls. Freshly cut leaves (100 mg) were used as a green control, from which chlorophyll was extracted and measured in the same manner. The calculated values are the average of 5 replicates and the whole experiment was repeated two times. The tested compounds were dissolved in dimethyl sulfoxide (DMSO) to a concentration 10^-2 M. This stock solution was further diluted with water to a concentration of 10 micromolar. At this concentration, the substances were tested.

[3] = tested on: Arabidopsis thaliana (ecotype Col-0); test: abiotic stress (saline, osmotic) assay on Arabidopsis seedlings; type: in vivo; details: 10 nM, 6 days of growth after transfer
Protocol: Compound 61 was tested for its ability to alleviate the effects of abiotic stress, represented by application of 100 mM NaCl (saline stress) or 100 mM mannitol (osmotic stress), respectively. The assay was performed as described in (Ugena et al., 2018, Front Plant Sci. 9, 1327. doi: 10.3389/fpls.2018.01327). Arabidopsis thaliana (ecotype Col-0) seeds were germinated on full MS growth medium for three days without presence of any treatment. After that they were transferred to the same medium containing 10 nM concertation of compound 61 in the absence or presence of the abiotic stress factor. Dimethyl sulfoxide (DMSO) was used as a solvent control (mock) in all variants. The dynamics of the shoot biomass formation and the relative growth rate were evaluated by recording the green area twice a day during the 6 days of growth after the seedling transfer. The abiotic stress conditions caused severe penalty in both traits evaluated. The salt and mannitol stress reduced the shoot yield by 63 % and 42 %, respectively, whereas presence of the compound 61 turned back the penalty by almost 20 % (Table 3 and Fig. 1). […] 11 % (Table 3).

[4] = tested on: Arabidopsis thaliana; test: foliar application, seed yield in Arabidopsis; type: in vivo
Protocol: In our experiment, young Arabidopsis thaliana plants were grown in small pots in soil and they were sprayed with a 0.1 µM compound 61 (aq solution) in phase of 4 true leaves (about 14-20 days after sowing). Treated plants (n = 25) and control plants (n = 25) were further grown under optimal conditions until their natural death. Subsequently, seeds were harvested from all plants and the yield was evaluated. […] This means a 19 % increase in total seed yield.
This means an increase in total seed yield of 23 %.

[5] = tested on: Arabidopsis thaliana; test: foliar application, lifespan of Arabidopsis under optimal conditions; type: in vivo; details: sprayed with 0.1 µM aqueous solution in phase of 4 true leaves, n = 25, compared to control plants
Protocol: Young Arabidopsis thaliana plants grown in small pots in a soil were sprayed with a 0.1 µM aqueous solution of substance 61 in phase of 4 true leaves (within 14-20 days after sowing).
Treated plants (n = 25) and control plants (n = 25) were further grown under optimal conditions until their natural death as in Example 25. […] The treated plants remained more green for a longer period of time (delayed senescence), which allowed them to accumulate more products of photosynthesis, which in turn may have contributed to a higher yield of these plants.

[6] = tested on: winter rapeseed; test: field trial, foliar application, seed yield of winter rapeseed; type: in vivo; details: 5 µM in 300 L per hectare; for weight of one thousand seeds: control 5.51 g; for seed yield compared to the control (100 %): foliar
Protocol: In 2017, the effect of foliar application of compound 61 (5 µM concentration in a volume of 300 L per hectare) on seed yield of winter rapeseed in field conditions was determined. The field trials were performed according to "good agricultural practice". Substance 61 was applied to plants in two different growth phases - BBCH 30 and BBCH 33-35. […] The weight of one thousand seeds in the treated plants was 5.7 g (BBCH 30) and 5.8 g (BBCH 33-35). This phenomenon contributed to the increase in total seed yield.

[7] = sprayed with 0.1 µM aq solution in phase of 4 true leaves, n = 25, optimal conditions

O=C(Nc1cccc(OC(F)(F)F)c1)Nc1ccccc1CCO [Compound 61, 1-[2-(2-Hydroxyethyl)phenyl]-3-(3-trifluoromethoxyphenyl)urea]
IC50 [1]: 0.18 µM | activation at 10 µM [2]: 24% | shoot yield: penalty caused by stress turned back ([3]; 100 mM NaCl (saline stress) or 100 mM mannitol (osmotic stress)): ~20% | average relative growth rate: effect of the stressors reduced ([3]; 100 mM NaCl or 100 mM mannitol): ~11% | increase in total seed yield ([4]; 0.1 µM spray, compared to control plants): 19% and 23% | seeds per silique (average) [4, 7]: 52 (± 4) and 49 (± 6) | total seed yield per plant [4, 7]: 155 (± 19) mg and 138 (± 15) mg | longer viability (average) [5]: 10 days | weight of one thousand seeds ([6]; applied at BBCH 30): 5.7 g | weight of one thousand seeds ([6]; applied at BBCH 33-35): 5.8 g | seed yield compared to the control (100 %) ([6]; applied at BBCH 30, 2017): 105.7% | seed yield compared to the control (100 %) ([6]; applied at BBCH 33-35, 2017): 107.5%
